Results from patent US20220380414A1, “COMPOSITIONS AND METHODS BASED ON HIV GP120 MUTANTS” (CENTRE H[…] L'UNIVERSITÉ DE MONTRÉAL, priority 2019, published 2022).
“Also recorded” adds a separate entry of the source.

How the values were obtained:
[1] = system: Recombinant HIV-1 strains bearing wild-type or mutant CRF01_AE Envs (92TH023 and CM244 isolates); assay: Neutralization of recombinant luciferase HIV-1 bearing wild-type or mutant CRF01_AE Envs, infection of Cf2Th-CD4/CCR5 cells; format: cell-based
Method: J Virol 74:10690-10698). Infectivity at each dilution of sCD4 or CD4mc tested is shown as the percentage of infection without sCD4 or CD4mc for each particular mutant. Quadruplicate samples were analyzed in each experiment. Data shown are the means of results obtained in at least 3 independent experiments. The error bars represent the standard deviations. […]
FIGS. 6A-F show the effect of Phe43 cavity and layer mutations (LM) on neutralization by small molecules known to stabilize Env State 1. Recombinant HIV-1 strains expressing luciferase and bearing wild-type or mutant CRF01_AE Envs (92TH023 and CM244 isolates) were normalized by reverse transcriptase activity. Normalized amounts of viruses were incubated with serial dilutions of BMS-626529 (Nowicka-Sans B et al. 2012. Antimicrob Agents Chemother 56:3498-3507; Pancera M et al., 2017. Nat Chem Biol 13:1115-1122) (FIG. 6A, B) or 484 (16) (FIG. 6C) at 37° C. for 1 h prior to infection of Cf2Th-CD4/CCR5 cells. Infectivity at each dilution of the compound tested is shown as the percentage of infection without the compound for each particular mutant. Quadruplicate samples were analyzed in each experiment. Data shown are the means of results obtained in at least 3 independent experiments. The error bars represent the standard deviations. (FIG. 6E, F) Cell-surface staining of 293T cells transfected with different CRF01_AE Env expressors (92TH023 and CM244 isolates) WT or their mutated counterparts together with a GFP expressor (in order to identify positively transfected cells) using sCD4. Binding of sCD4 in presence of BMS-626529 (50 μM) or not (DMSO) was detected with the anti-CD4 OKT4 mAb. Shown are the mean fluorescence intensities (MFI) obtained in presence of BNM-III-170 normalized to the MFI in absence of BNM-III-170 (DMSO) from the transfected (GFP+) population for staining obtained in at least 3 independent experiments. All MFI were normalized to 2G12 MFI for each Env mutants. Decrease in sCD4 signal indicates competition with BMS-626529 (i.e., this represents an indirect measure of BMS-626529 interaction with each Env mutant). […] Error bars indicate mean±SEM. Statistical significance was tested using an unpaired t-test (** p<0.01, ns: non significant). […]
CD4mc were used as probes to evaluate the potential impact of the LM residues on shaping the Phe43 cavity. […] In contrast, no or very little effect was measured in recombinant viruses with mutations in the Phe43 cavity only or in the inner domain layer only.

[2] = system: CRF01_AE Env from a transmitted founder strain (40100 isolate) with LM+HS mutations; assay: Cell-surface staining of primary CD4+ T cells infected with SHIV expressing CRF01_AE Env, anti-Env mAb binding with compound; format: cell-based
Method: Cell-surface staining of primary CD4^+ T cells infected with SHIV expressing a CRF01_AE Env from a transmitted founder strain (40100 isolate) (Chenine A L et al., 2018. J Acquir Immune Defic Syndr 78:348-355; Kijak G H et al., 2017. PLoS Pathog 13:e1006510) mutated to harbor the LM+HS mutations using a panel of Env ligands. Binding of anti-Env mAbs preferring State 1 (PGT128, PGT145, PG9, 10-1074) (FIG. 7A-D) or preferring State 2/3 (19b, 17b) (FIG. 7E-F) was performed in presence of DMSO or increasing amount of BNM-III-170 (stabilises States 2/3 (Munro J B et al., 2014. Science 346:759-763; Alsahafi N et al., 2019. Cell Host Microbe 25:578-587: e575; Herschhorn A, et al. 2017. Nat Commun 8:1049) or BMS-626529 (stabilizes State 1, (Lu M et al. 2019. Nature 568, pages 415-419; Munro J B et al., 2014. Science 346:759-763)). Shown are the mean fluorescence intensities (MFI) obtained in presence of the compounds normalized to the MFI in absence of any compound (DMSO) from the infected (p27+) population. All MFI were normalized to 2G12 MFI for each mAb. State 1 and State 2/3 Abs were grouped in FIG. 7G and FIG. 7H, respectively.

[3] = system: CRF01_AE Env (92TH023 and CM244 isolates) WT or mutated; assay: Cell-surface staining of HEK293T cells transfected with CRF01_AE Env expressors, Env ligand binding with or without compound; format: cell-based, HIV-1
Method: Cell-surface staining of HEK293T cells transfected with different CRF01_AE Env expressors (92TH023 and CM244 isolates) WT or their mutated counterparts together with a GFP expressor (in order to identify positively transfected cells) using a panel of Env ligands. (FIG. 4A, B) sCD4 binding in presence of BNM-III-170 (50 μM) or not (DMSO) was detected with the anti-CD4 OKT4 mAb. Binding of broadly-neutralizing antibodies (bNAbs) that preferentially recognize state 1 Env (Lu M et al. 2019. Nature 568, pages 415-419; Munro J B et al., 2014. Science 346:759-763) (FIG. 4B, E) and non-neutralizing antibodies (nnAbs) that preferentially recognize states 2/2A/3 (Alsahafi N et al., 2019. Cell Host Microbe 25:578-587, Prevost J et al., 2018. Virology 515:38-45) (FIG. 4C, F) was also performed in presence of BNM-III-170 (50 μM) or not (DMSO). Shown are the mean fluorescence intensities (MFI) obtained in presence of BNM-III-170 normalized to the MFI in absence of BNM-111-170 (DMSO) from the transfected (GFP+) population for staining obtained in at least 3 independent experiments. All MFI were normalized to MFI signals obtained with the anti-gp120 outer domain 2G12. Decrease in sCD4 signal indicates competition with BNM-III-170 (i.e., this represents an indirect measure of BNM-III-170 interaction with each Env mutant) (FIGS. 4A and D). […] Increase in nnAbs signal is consistent with the capacity of BNM-III-170 to push Env to downstream “open” states 2/3 conformations (C and F). […] Error bars indicate mean±SEM. Statistical significance was tested using an unpaired t-test (* p<0.05, ** p<0.01, *** p<0.001, **** p<0.0001, ns: non significant).
FIGS. 6A-F show the effect of Phe43 cavity and layer mutations (LM) on neutralization by small molecules known to stabilize Env State 1. Recombinant HIV-1 strains expressing luciferase and bearing wild-type or mutant CRF01_AE Envs (92TH023 and CM244 isolates) were normalized by reverse transcriptase activity. Normalized amounts of viruses were incubated with serial dilutions of BMS-626529 (Nowicka-Sans B et al. 2012. Antimicrob Agents Chemother 56:3498-3507; Pancera M et al., 2017. Nat Chem Biol 13:1115-1122) (FIG. 6A, B) or 484 (16) (FIG. 6C) at 37° C. for 1 h prior to infection of Cf2Th-CD4/CCR5 cells. Infectivity at each dilution of the compound tested is shown as the percentage of infection without the compound for each particular mutant. Quadruplicate samples were analyzed in each experiment. Data shown are the means of results obtained in at least 3 independent experiments. The error bars represent the standard deviations. (FIG. 6E, F) Cell-surface staining of 293T cells transfected with different CRF01_AE Env expressors (92TH023 and CM244 isolates) WT or their mutated counterparts together with a GFP expressor (in order to identify positively transfected cells) using sCD4. Binding of sCD4 in presence of BMS-626529 (50 μM) or not (DMSO) was detected with the anti-CD4 OKT4 mAb. Shown are the mean fluorescence intensities (MFI) obtained in presence of BNM-III-170 normalized to the MFI in absence of BNM-III-170 (DMSO) from the transfected (GFP+) population for staining obtained in at least 3 independent experiments. All MFI were normalized to 2G12 MFI for each Env mutants. Decrease in sCD4 signal indicates competition with BMS-626529 (i.e., this represents an indirect measure of BMS-626529 interaction with each Env mutant). […] Error bars indicate mean±SEM. Statistical significance was tested using an unpaired t-test (** p<0.01, ns: non significant).
To gain a better understanding of the impact that the LM and 375 changes have on Env conformation, an assay to measure sCD4 and BNM-III-170 capacity to interact with Env was developed. Briefly, CD4-negative cells were transfected with Env variants. Two days post-transfection, BNM-III-170 or the vehicle (DMSO) was added to Env-expressing cells. […]

[4] = LM+HS or LM+HT mutants of CRF01_AE Envs versus wild-type
[5] = LM+HS or LM+HT mutants, BNM-III-170 50 μM vs DMSO

SMILES | sensitivity to neutralization [1, 4] | Env recognition by bNAbs preferentially binding state 1 in presence of compound ([2]; increasing amount of BMS-626529 vs DMSO) | Env conformation adopted in presence of ligand ([3]; CRF01_AE gp160 with the same six mutations combined with H375S) | sCD4 signal in presence of compound (competition, indirect measure of interaction with Env) ([3]; LM-HS mutant, BMS-626529 50 μM vs DMSO, detected with anti-CD4 OKT4 mAb) | susceptibility to neutralization ([1]; H375S combined with LM mutations (LM+HS), both CRF01_AE strains) | neutralization of pseudotypes ([1]; H375S mutant of both CRF01_AE Envs) | sensitivity to neutralization ([1]; different combinations of single or multiple layer mutations together with H375S) | neutralization of viral particles ([1]; wild-type CRF01_AE Envs (92TH023 and CM244)) | Env recognition by nnAbs preferentially binding states 2/3 in presence of compound ([2]; increasing amount of BNM-III-170 vs DMSO) | Env conformation adopted in presence of ligand ([3]; CRF01_AE gp160 with H61Y, Q105H, V108I, N474D, I475M, K476R combined with H375T) | compound-induced Env conformational changes (open conformation) [3, 5] | recognition by state 1 preferring bNAbs in presence of compound [3, 5] | sCD4 and nnAbs binding (open state 2/3 preferring) in presence of compound [3, 5]
COc1cnc(-n2cnc(C)n2)c2[nH]cc(C(=O)C(=O)N3CCN(C(=O)c4ccccc4)CC3)c12 [BMS-626529, temsavir] | sensitized | enhanced Env recognition | tend to adopt a state 1 configuration | statistically significant decrease |  |  |  |  |  |  |  |  | 
CNCc1ccc2c(c1)C[C@H](CN=C(N)N)[C@H]2NC(=O)C(=O)Nc1ccc(Cl)c(F)c1.O=C(O)C(F)(F)F.O=C(O)C(F)(F)F [BNM-III-170] | more sensitive to neutralization |  |  |  | dramatically enhanced the susceptibility | did not restore neutralization sensibility | did not restore sensitivity | resistant to neutralization | enhanced Env recognition | tend to adopt an open state 2/3 configuration | superior; also recorded: more susceptible | decrease in recognition | increase in sCD4 and nnAbs binding
